Legend:
[1] = biological target: T1, recombinant human adrenergic beta 1 receptors (Homo sapiens, UniProt P08588); test: Adrenergic β1 selectivity assay, [125I]-Iodocyanopindolol binding to membranes; details: inhibition of [125I]-Iodocyanopindolol binding, read-out: β1 bind pIC50 (converted)
T1 construct: purchased Euroscreen
Procedure: Membranes containing recombinant human adrenergic beta 1 receptors were obtained from Euroscreen. These were diluted in Assay Buffer (50 mM HEPES, 1 mM EDTA, 120 mM NaCl, 0.1% gelatin, pH 7.4) to provide a final concentration of membranes that gave a clear window between maximum and minimum specific binding.
Assays were performed in U-bottomed 96-well polypropylene plates. 10 μL [^125I]-Iodocyanopindolol (0.036 nM final concentration) and 10 μL of test compound (10× final concentration) were added to each test well. For each assay plate 8 replicates were obtained for [^125I]-Iodocyanopindolol binding in the presence of 10 μL vehicle (10% (v/v) DMSO in Assay Buffer; defining maximum binding) or 10 μL Propranolol (10 μM final concentration; defining non-specific binding (NSB)). Membranes were then added to achieve a final volume of 100 μL. The plates were incubated for 2 hours at room temperature and then filtered onto PEI coated GF/B filter plates, pre-soaked for 1 hour in Assay Buffer, using a 96-well plate Tomtec cell harvester. Five washes with 250 μL wash buffer (50 mM HEPES, 1 mM EDTA, 120 mM NaCl, pH 7.4) were performed at 4° C. to remove unbound radioactivity. The plates were dried then sealed from underneath using Packard plate sealers and MicroScint-O (50 μL) was added to each well. The plates were sealed (TopSeal A) and filter-bound radioactivity was measured with a scintillation counter (TopCount, Packard BioScience) using a 3-minute counting protocol.
Total specific binding (B0) was determined by subtracting the mean NSB from the mean maximum binding. NSB values were also subtracted from values from all other wells. […] Data was fitted to a four parameter logistic equation to determine the compound potency, which was expressed as pIC50 (negative log molar concentration inducing 50% inhibition of [^125I]-Iodocyanopindolol binding).

[2] = biological target: T2, Adrenergic β2 (Homo sapiens, UniProt P07550); test: Adrenergic β2 mediated cAMP production in H292 cells (AlphaScreen cAMP detection); assay type: cell-based; set-up: key to β2 Int Act: fraction of formoterol maximum activity (formoterol = 1); details: for β2 Int Act: Intrinsic Activity as a fraction relative to the maximum activity determined for formoterol; for EC50: cAMP production, 60 minutes at room temperature, 300 μM rolipram, read-out: β2 pEC50 (converted)
T2 construct: Adherent H292 cells were removed from tissue culture flasks; endogenous in cells; host or cells: H292 cells
Summary of the method: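 H292 cells pre-treated 10 min with rolipram (300 μM final), then given agonist for 60 min at room temperature in HBSS/10 mM HEPES pH 7.4, 1.6% DMSO final. Lysate cAMP measured by AlphaScreen against a cAMP standard curve. Four-parameter fit gives pEC50; intrinsic activity relative to formoterol maximum.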

T1 sequence (P08588 whole entry): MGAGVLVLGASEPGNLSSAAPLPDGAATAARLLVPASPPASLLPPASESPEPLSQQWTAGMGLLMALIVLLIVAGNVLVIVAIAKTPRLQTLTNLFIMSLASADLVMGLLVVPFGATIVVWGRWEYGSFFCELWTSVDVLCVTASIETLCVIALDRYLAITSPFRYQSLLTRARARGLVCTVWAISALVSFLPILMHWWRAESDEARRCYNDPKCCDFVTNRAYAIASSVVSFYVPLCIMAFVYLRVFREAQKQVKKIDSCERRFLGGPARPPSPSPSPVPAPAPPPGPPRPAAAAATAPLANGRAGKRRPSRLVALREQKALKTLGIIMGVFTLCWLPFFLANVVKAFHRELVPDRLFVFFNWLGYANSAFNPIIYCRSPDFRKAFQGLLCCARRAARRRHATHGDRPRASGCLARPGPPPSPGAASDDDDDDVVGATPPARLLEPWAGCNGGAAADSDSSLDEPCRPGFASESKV
T2 sequence (P07550 whole entry): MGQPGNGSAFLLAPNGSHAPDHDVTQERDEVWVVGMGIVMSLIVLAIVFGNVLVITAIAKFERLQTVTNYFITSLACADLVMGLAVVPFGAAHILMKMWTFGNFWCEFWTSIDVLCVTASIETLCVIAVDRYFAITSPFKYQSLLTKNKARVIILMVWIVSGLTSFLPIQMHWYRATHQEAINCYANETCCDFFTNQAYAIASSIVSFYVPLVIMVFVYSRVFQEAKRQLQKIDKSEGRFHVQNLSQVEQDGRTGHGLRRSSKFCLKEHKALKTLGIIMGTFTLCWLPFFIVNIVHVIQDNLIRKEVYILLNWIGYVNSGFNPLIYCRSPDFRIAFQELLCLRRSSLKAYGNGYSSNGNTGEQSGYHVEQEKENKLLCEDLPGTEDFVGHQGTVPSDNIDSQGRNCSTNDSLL

Structure (SMILES) | IC50 [1] | β2 Int Act [2] | EC50 [2]
O=C1COc2c(CCNCCN(C(=O)CCNCCc3ccc(Cl)c(Cl)c3)C3CCCCC3)ccc(O)c2N1 [Example 30, N-Cyclohexyl-3-(3,4-dichlorophenethylamino)-N-(2-(2-(5-hydroxy-3-oxo-3,4-dihydro-2H-benzo[b][1,4]oxazin-8-yl)ethylamino)ethyl)propanamide bis(trifluoroacetate)] | 2510 nM | 0.92 | 3.98 nM
O=C1COc2c(CCNCCN(C(=O)CCNCCc3ccc(Cl)cc3Cl)C3CCCCC3)ccc(O)c2N1 [Example 31, N-Cyclohexyl-3-(2,4-dichlorophenethylamino)-N-(2-(2-(5-hydroxy-3-oxo-3,4-dihydro-2H-benzo[b][1,4]oxazin-8-yl)ethylamino)ethyl)propanamide bis(trifluoroacetate)] | 3160 nM | 0.94 | 6.31 nM
O=C1COc2c(CCNCCN(C(=O)CCNCCc3ccc(Cl)cc3)C3CCCCC3)ccc(O)c2N1 [Example 32, 3-(4-Chlorophenethylamino)-N-cyclohexyl-N-(2-(2-(5-hydroxy-3-oxo-3,4-dihydro-2H-benzo[b][1,4]oxazin-8-yl)ethylamino)ethyl)propanamide bis(trifluoroacetate)] | 2000 nM | 1.03 | 3.16 nM
O=C1COc2c(CCNCCN(C(=O)CCNCCc3cc(F)cc(F)c3)C3CCCCC3)ccc(O)c2N1 [Example 35, N-Cyclohexyl-3-(3,5-difluorophenethylamino)-N-(2-(2-(5-hydroxy-3-oxo-3,4-dihydro-2H-benzo[b][1,4]oxazin-8-yl)ethylamino)ethyl)propanamide bis(trifluoroacetate)] | > 10000 nM | 0.87 | 1.58 nM
O=C1COc2c(CCNCCN(C(=O)CCNCCc3cccc(F)c3F)C3CCCCC3)ccc(O)c2N1 [Example 36, N-Cyclohexyl-3-(2,3-difluorophenethylamino)-N-(2-(2-(5-hydroxy-3-oxo-3,4-dihydro-2H-benzo[b][1,4]oxazin-8-yl)ethylamino)ethyl)propanamide bis(trifluoroacetate)] | 3160 nM | 0.91 | 1.26 nM
O=C1COc2c(CCNCCN(C(=O)CCNCCc3ccc(F)c(Cl)c3)C3CCCCC3)ccc(O)c2N1 [Example 37, 3-(3-Chloro-4-fluorophenethylamino)-N-cyclohexyl-N-(2-(2-(5-hydroxy-3-oxo-3,4-dihydro-2H-benzo[b][1,4]oxazin-8-yl)ethylamino)ethyl)propanamide bis(trifluoroacetate)] | 1000 nM | 0.89 | 2 nM
O=C1COc2c(CCNCCN(C(=O)CCNCCc3cc(F)ccc3F)C3CCCCC3)ccc(O)c2N1 [Example 38, N-Cyclohexyl-3-(2,5-difluorophenethylamino)-N-(2-(2-(5-hydroxy-3-oxo-3,4-dihydro-2H-benzo[b][1,4]oxazin-8-yl)ethylamino)ethyl)propanamide bis(trifluoroacetate)] | > 5010 nM | 0.98 | 1.26 nM
O=C1COc2c(CCNCCN(C(=O)CCNCCc3cccc(Cl)c3F)C3CCCCC3)ccc(O)c2N1 [Example 39, 3-(3-Chloro-2-fluorophenethylamino)-N-cyclohexyl-N-(2-(2-(5-hydroxy-3-oxo-3,4-dihydro-2H-benzo[b][1,4]oxazin-8-yl)ethylamino)ethyl)propanamide bis(trifluoroacetate)] | 1260 nM | 0.98 | 1.58 nM
Cc1cc(CCNCCC(=O)N(CCNCCc2ccc(O)c3c2OCC(=O)N3)C2CCCCC2)ccc1F [Example 40, N-Cyclohexyl-3-(4-fluoro-3-methylphenethylamino)-N-(2-(2-(5-hydroxy-3-oxo-3,4-dihydro-2H-benzo[b][1,4]oxazin-8-yl)ethylamino)ethyl)propanamide bis(trifluoroacetate)] | > 7940 nM | 0.96 | 251 nM
O=C1COc2c(CCNCCN(C(=O)CCNCCc3cc(F)cc(Cl)c3)C3CCCCC3)ccc(O)c2N1 [Example 41, 3-(3-Chloro-5-fluorophenethylamino)-N-cyclohexyl-N-(2-(2-(5-hydroxy-3-oxo-3,4-dihydro-2H-benzo[b][1,4]oxazin-8-yl)ethylamino)ethyl)propanamide (trifluoroacetate)] | > 7940 nM | 0.95 | 3.16 nM
O=C1COc2c(CCNCCN(C(=O)CCNCCc3ccc(F)c(F)c3)C3CCCCC3)ccc(O)c2N1 [Example 42, N-Cyclohexyl-3-(3,4-difluorophenethylamino)-N-(2-(2-(5-hydroxy-3-oxo-3,4-dihydro-2H-benzo[b][1,4]oxazin-8-yl)ethylamino)ethyl)propanamide bis(trifluoroacetate)] | 3160 nM | 0.9 | 2 nM
O=C1COc2c(CCNCCN(C(=O)CCNCCc3ccc(C(=O)O)cc3)C3CCCCC3)ccc(O)c2N1 [Example 43, 4-(2-(3-(Cyclohexyl(2-(2-(5-hydroxy-3-oxo-3,4-dihydro-2H-benzo[b][1,4]oxazin-8-yl)ethylamino)ethyl)amino)-3-oxopropylamino)ethyl)benzoic acid bis(trifluoroacetate)] | > 10000 nM | 0.97 | 31.6 nM
CCCC[C@@H](C)N(CCNCCc1ccc(O)c2c1OCC(=O)N2)C(=O)CCNCCc1cccc(Cl)c1 [Example 44, (R)-3-(3-Chlorophenethylamino)-N-(hexan-2-yl)-N-(2-(2-(5-hydroxy-3-oxo-3,4-dihydro-2H-benzo[b][1,4]oxazin-8-yl)ethylamino)ethyl)propanamide bis(trifluoroacetate)] | 1260 nM | 0.89 | 2 nM
CCCC[C@@H](C)N(CCNCCc1ccc(O)c2c1OCC(=O)N2)C(=O)CCNCCc1ccc(Cl)cc1 [Example 45, (R)-3-(4-Chlorophenethylamino)-N-(hexan-2-yl)-N-(2-(2-(5-hydroxy-3-oxo-3,4-dihydro-2H-benzo[b][1,4]oxazin-8-yl)ethylamino)ethyl)propanamide bis(trifluoroacetate)] | 1260 nM | 0.89 | 5.01 nM
CCCC[C@@H](C)N(CCNCCc1ccc(O)c2c1OCC(=O)N2)C(=O)CCNCCc1ccccc1Cl [Example 46, (R)-3-(2-Chlorophenethylamino)-N-(hexan-2-yl)-N-(2-(2-(5-hydroxy-3-oxo-3,4-dihydro-2H-benzo[b][1,4]oxazin-8-yl)ethylamino)ethyl)propanamide bis(trifluoroacetate)] | 1580 nM | 0.89 | 1.26 nM
CCCC[C@@H](C)N(CCNCCc1ccc(O)c2c1OCC(=O)N2)C(=O)CCNCCc1ccc(F)c(C)c1 [Example 47, (R)-3-(4-Fluoro-3-methylphenethylamino)-N-(hexan-2-yl)-N-(2-(2-(5-hydroxy-3-oxo-3,4-dihydro-2H-benzo[b][1,4]oxazin-8-yl)ethylamino)ethyl)propanamide bis(trifluoroacetate)] | 631 nM | 0.89 | 1.58 nM
CCCC[C@@H](C)N(CCNCCc1ccc(O)c2c1OCC(=O)N2)C(=O)CCNCCc1ccc(F)c(Cl)c1 [Example 48, (R)-3-(3-Chloro-4-fluorophenethylamino)-N-(hexan-2-yl)-N-(2-(2-(5-hydroxy-3-oxo-3,4-dihydro-2H-benzo[b][1,4]oxazin-8-yl)ethylamino)ethyl)propanamide bis(trifluoroacetate)] | 794 nM | 0.91 | 2 nM
CCCC[C@@H](C)N(CCNCCc1ccc(O)c2c1OCC(=O)N2)C(=O)CCNCCc1ccc(Cl)s1 [Example 49, (R)-3-(2-(5-Chlorothiophen-2-yl)ethylamino)-N-(hexan-2-yl)-N-(2-(2-(5-hydroxy-3-oxo-3,4-dihydro-2H-benzo[b][1,4]oxazin-8-yl)ethylamino)ethyl)propanamide bis(trifluoroacetate)] | 1000 nM | 1.01 | 2.51 nM
CCCC[C@@H](C)N(CCNCCc1ccc(O)c2c1OCC(=O)N2)C(=O)CCNCCc1cc(F)cc(Cl)c1 [Example 50, (R)-3-(3-Chloro-5-fluorophenethylamino)-N-(hexan-2-yl)-N-(2-(2-(5-hydroxy-3-oxo-3,4-dihydro-2H-benzo[b][1,4]oxazin-8-yl)ethylamino)ethyl)propanamide bis(trifluoroacetate)] | 1260 nM | 0.89 | 1.26 nM
